Laboratory results reported in patent US20230312605A1, “PYRROLO[2,1-F][1,2,4]TRIAZINES AND PREPARATION AND USES THEREOF” (BioSplice Therapeutics, Inc., priority 2021, published 2023).
pEC50: −log10 of the molar value.

What follows are compounds tested against recombinant DYRK1A kinase (Homo sapiens (Human), UniProt Q13627) (assay: DYRK1A kinase assay (Ser/Thr 18 peptide Z-lyte FRET assay)). Settings: recombinant DYRK1A 0.25 µg/mL, ATP 15 µM, Ser/Thr peptide 18 4 µM, one hour at room temperature; table head prints EC50, method says IC50.
Type: biochemical
Outline: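 Z-lyte FRET format: 1 h room-temperature reaction of 15 µM ATP, 4 µM Ser/Thr 18 peptide and 0.25 µg/mL recombinant human DYRK1A, in duplicate over 11 compound concentrations up to 10 µM. IC50 was derived by non-linear regression of percent phosphorylation calculated from coumarin/fluorescein emission ratios.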

| pEC50 | Compound |
| --- | --- |
| 8.30 | C[C@]1(O)C[C@@H](Nc2ncc3c(-c4cnc5ncccc5c4)ccn3n2)C1 [Compound 1825, cis-3-((5-(1,8-Naphthyridin-3-yl)pyrrolo[2,1-f][1,2,4]triazin-2-yl)amino)-1-methylcyclobutan-1-ol] |
| 9.00 | Cc1nc2ccc(-c3ccn4nc(N[C@@H]5CN(C6COC6)C[C@@H]5F)ncc34)nc2n1CC(F)F [Compound 1945, 5-(3-(2,2-Difluoroethyl)-2-methyl-3H-imidazo[4,5-b]pyridin-5-yl)-N-((3R,4S)-4-fluoro-1-(oxetan-3-yl)pyrrolidin-3-yl)pyrrolo [2,1-f][1,2,4]triazin-2-amine] |
| 8.40 | CC(=O)N1C[C@H](F)[C@H](Nc2ncc3c(-c4ccc5nc(C)n(CC(F)F)c5n4)ccn3n2)C1 [Compound 1941, 1-((3R,4S)-3-((5-(3-(2,2-Difluoroethyl)-2-methyl-3H-imidazo[4,5-b]pyridin-5-yl)pyrrolo[2,1-f] [1,2,4]triazin-2-yl)amino)-4-fluoropyrrolidin-1-yl)ethan-1-one] |
| 7.96 | C[C@]1(O)CC[C@H](Nc2ncc3c(-c4ccn5nccc5c4)ccn3n2)CC1 [Compound 1891, trans-1-Methyl-4-((5-(pyrazolo[1,5-a]pyridin-5-yl)pyrrolo[2,1-f][1,2,4]triazin-2-yl)amino)cyclohexan-1-ol] |
| 8.15 | FC(F)(F)O[C@H]1CC[C@@H](Nc2ncc3c(-c4cnc5nccn5c4)ccn3n2)CC1 [Compound 1780, 5-(Imidazo[1,2-a]pyrimidin-6-yl)-N-(cis-4-(trifluoromethoxy)cyclohexyl) pyrrolo[2,1-f][1,2,4]triazin-2-amine] |
| 8.22 | Cc1nc2ncc(-c3ccn4nc(N[C@@H]5CCN(C)C[C@H]5F)ncc34)cc2n1CC(F)F [Compound 1885, 5-(1-(2,2-Difluoroethyl)-2-methyl-1H-imidazo[4,5-b]pyridin-6-yl)-N-((3R,4R)-3-fluoro-1-methylpiperidin-4-yl)pyrrolo[2,1-f][1,2,4]triazin-2-amine] |
| 8.52 | CC(=O)N[C@H]1CC[C@@H](Nc2ncc3c(-c4ccc5nc(C)n(CC(F)F)c5n4)ccn3n2)CC1 [Compound 1898, N-(cis-4-((5-(3-(2,2-Difluoroethyl)-2-methyl-3H-imidazo [4,5-b]pyridin-5-yl)pyrrolo[2,1-f] [1,2,4]triazin-2-yl)amino)cyclohexyl)acetamide] |
| 8.15 | Cc1nc2ccc(-c3ccn4nc(N[C@@H]5CCN(CC(C)C)C[C@@H]5F)ncc34)nc2n1CC(F)F [Compound 1908, 5-(3-(2,2-Difluoroethyl)-2-methyl-3H-imidazo[4,5-b]pyridin-5-yl)-N-((3S,4R)-3-fluoro-1-isobutylpiperidin-4-yl)pyrrolo[2,1-f] [1,2,4]triazin-2-amine] |
| 8.05 | Cc1nc2ncc(-c3ccn4nc(NC5CCC(F)(F)CC5)ncc34)cc2n1Cc1nnc([C@@H](C)F)o1 [Compound 1915, (R)-N-(4,4-Difluorocyclohexyl)-5-(1-((5-(1-fluoroethyl)-1,3,4-oxadiazol-2-yl)methyl)-2-methyl-1H-imidazo[4,5-b]pyridin-6-yl)pyrrolo[2,1-f][1,2,4]triazin-2-amine] |
| 8.30 | Cc1nc2ccc(-c3ccn4nc(NCC5CN(C)CCO5)ncc34)nc2n1CC(F)F (stereo not drawn) [Compound 1848, 5-(3-(2,2-Difluoroethyl)-2-methyl-3H-imidazo[4,5-b]pyridin-5-yl)-N-((4-methylmorpholin-2-yl)methyl)pyrrolo[2,1-f][1,2,4]triazin-2-amine] |
| 8.52 | Cc1nc2ccc(-c3ccn4nc(N[C@H]5CC[C@H](C(=O)N(C)C)CC5)ncc34)nc2n1CC(F)F [Compound 1895, trans-4-((5-(3-(2,2-Difluoroethyl)-2-methyl-3H-imidazo[4,5-b]pyridin-5-yl)pyrrolo[2,1-f] [1,2,4]triazin-2-yl)amino)-N,N-dimethylcyclohexane-1-carboxamide] |
| 8.52 | Cc1nc2ccc(-c3ccn4nc(N[C@H]5C[C@@H](CO)C5)ncc34)nc2n1CC(F)F [Compound 1834, (cis-3-((5-(3-(2,2-Difluoroethyl)-2-methyl-3H-imidazo[4,5-b]pyridin-5-yl)pyrrolo[2,1-f][1,2,4]triazin-2-yl)amino)cyclobutyl)methanol] |

Continued, compound first:

| Compound | pEC50 |
| --- | --- |
| CC(C)CN1CC2(CC(Nc3ncc4c(-c5ccc6ncccc6c5)ccn4n3)C2)C1 [Compound 1771, N-(2-isobutyl-2-azaspiro[3.3]heptan-6-yl)-5-(quinolin-6-yl)pyrrolo[2,1-f] [1,2,4]triazin-2-amine] | 8.30 |
| C[C@H](Nc1ncc2c(-c3cnc4nccn4c3)ccn2n1)C1CC1 [Compound 230, (S)-N-(1-Cyclopropylethyl)-5-(imidazo[1,2-a]pyrimidin-6-yl)pyrrolo[2,1-f] [1,2,4]triazin-2-amine] | 7.24 |
| CO[C@H]1CC[C@H](Nc2ncc3c(-c4cnc5nc(C)n(CC(F)F)c5c4)ccn3n2)CC1 [Compound 686, 5-(1-(2,2-Difluoroethyl)-2-methyl-1H-imidazo[4,5-b]pyridin-6-yl)-N-(trans-4-methoxycyclohexyl)pyrrolo[2,1-f][1,2,4]triazin-2-amine] | 8.30 |
| COCCO[C@H]1CC[C@H](Nc2ncc3c(-c4cnc5ncccc5c4)ccn3n2)CC1 [Compound 1544, N-(trans-4-(2-Methoxyethoxy)cyclohexyl)-5-(1,8-naphthyridin-3-yl)pyrrolo [2,1-f][1,2,4]triazin-2-amine] | 8.30 |
| CCO[C@H]1C[C@@H](Nc2ncc3c(-c4cnc5ncccc5c4)ccn3n2)C1 [Compound 1520, N-(cis-3-Ethoxycyclobutyl)-5-(1,8-naphthyridin-3-yl)pyrrolo[2,1-f][1,2,4] triazin-2-amine] | 6.02 |
| CO[C@H]1C[C@@H](Nc2ncc3c(-c4ccc5nc(C)n(CC(F)F)c5n4)ccn3n2)C1 [Compound 1091, 5-(3-(2,2-Difluoroethyl)-2-methyl-3H-imidazo[4,5-b]pyridin-5-yl)-N-(cis-3-methoxycyclobutyl)pyrrolo[2,1-f][1,2,4]triazin-2-amine] | 5.48 |
| Cn1nnc2ccc(-c3ccn4nc(NCC(C)(C)F)ncc34)cc21 [Compound 1210, N-(2-Fluoro-2-methylpropyl)-5-(1-methyl-1H-benzo[d][1,2,3]triazol-6-yl) pyrrolo[2,1-f][1,2,4]triazin-2-amine] | 7.18 |
| c1cn2cc(-c3ccn4nc(NC5CCC5)ncc34)cnc2n1 [Compound 235, N-Cyclobutyl-5-(imidazo[1,2-a]pyrimidin-6-yl)pyrrolo[2,1-f][1,2,4]triazin-2-amine] | 6.42 |
| CC(C)Nc1ncc2c(-c3cnc4nccn4c3)ccn2n1 [Compound 214, 5-(Imidazo[1,2-a]pyrimidin-6-yl)-N-isopropylpyrrolo[2,1-f][1,2,4]triazin-2-amine] | 7.48 |
| CC(C)CNc1ncc2c(-c3ccc4nccn4c3)ccn2n1 [Compound 2, 5-(Imidazo[1,2-a]pyridin-6-yl)-N-isobutylpyrrolo[2,1-f][1,2,4]triazin-2-amine] | 7.39 |
| COCCO[C@H]1CC[C@@H](Nc2ncc3c(-c4cnc5ncccc5c4)ccn3n2)CC1 [Compound 1543, N-(cis-4-(2-Methoxyethoxy)cyclohexyl)-5-(1,8-naphthyridin-3-yl)pyrrolo [2,1-f][1,2,4]triazin-2-amine] | 8.70 |
| CC(C)CNc1ncc2c(-c3cnc4nccn4c3)ccn2n1 [Compound 215, 5-(Imidazo[1,2-a]pyrimidin-6-yl)-N-isobutylpyrrolo[2,1-f][1,2,4]triazin-2-amine] | 8.22 |
| CO[C@H]1C[C@@H](Nc2ncc3c(-c4ccc5nccnc5c4)ccn3n2)C1 [Compound 1375, N-(cis-3-Methoxycyclobutyl)-5-(quinoxalin-6-yl)pyrrolo[2,1-f][1,2,4]triazin-2-amine] | 8.22 |
| c1cn2cc(-c3ccn4nc(NC5CCOCC5)ncc34)cnc2n1 [Compound 280, 5-(imidazo[1,2-a]pyrimidin-6-yl)-N-(tetrahydro-2H-pyran-4-yl)pyrrolo[2,1-f][1,2,4]triazin-2-amine] | 7.82 |
| CN1CC(Nc2ncc3c(-c4ccc5nccn5c4)ccn3n2)C1 [Compound 64, 5-(Imidazo[1,2-a]pyridin-6-yl)-N-(1-methylazetidin-3-yl)pyrrolo[2,1-f] [1,2,4]triazin-2-amine] | 6.72 |
| FC(F)(F)C1(CNc2ncc3c(-c4cnc5nccn5c4)ccn3n2)CC1 [Compound 226, 5-(Imidazo[1,2-a]pyrimidin-6-yl)-N-((1-(trifluoromethyl)cyclopropyl)methyl)pyrrolo[2,1-f][1,2,4]triazin-2-amine] | 7.96 |
| Cc1nc2ncc(-c3ccn4nc(NCC(C)(C)F)ncc34)cc2n1C1CC(F)(F)C1 [Compound 713, 5-(1-(3,3-Difluorocyclobutyl)-2-methyl-1H-imidazo[4,5-b]pyridin-6-yl)-N-(2-fluoro-2-methylpropyl)pyrrolo[2,1-f][1,2,4]triazin-2-amine] | 7.96 |
| Cc1nc2ncc(-c3ccn4nc(NC5CCOCC5)ncc34)cc2n1CC(F)F [Compound 706, 5-(1-(2,2-Difluoroethyl)-2-methyl-1H-imidazo[4,5-b]pyridin-6-yl)-N-(tetrahydro-2H-pyran-4-yl)pyrrolo[2,1-f][1,2,4]triazin-2-amine] | 8.30 |
| c1cnc2ccc(-c3ccn4nc(NC5CC6(CNC6)C5)ncc34)cc2c1 [Compound 1747, 5-(Quinolin-6-yl)-N-(2-azaspiro[3.3]heptan-6-yl)pyrrolo[2,1-f][1,2,4]triazin-2-amine] | 8.52 |
| c1cnc2ncc(-c3ccn4nc(N[C@H]5CC[C@@H](N6CCOCC6)CC5)ncc34)cc2c1 [Compound 1551, N-(cis-4-Morpholinocyclohcxy1)-5-(1,8-naphthyridin-3-yl)pyrrolo[2,1-f] [1,2,4]triazin-2-amine] | 7.42 |
| Cc1nc2ccc(-c3ccn4nc(N[C@H]5CC[C@@H](OC(F)F)CC5)ncc34)nc2n1CC(F)F [Compound 1113, N-(cis-4-(Difluoromethoxy)cyclohexyl)-5-(3-(2,2-difluoroethyl)-2-methyl-3H-imidazo[4,5-b]pyridin-5-yl)pyrrolo[2,1-f][1,2,4]triazin-2-amine] | 8.15 |
